Consider 14 molecules from US20050233461A1, “High-throughput methods and systems for screening of compounds to treat/prevent kidney disorders” (priority 2002, published 2005).

Experiment [1] can be described thus: high throughput screen of components for modifying calcium oxalate crystal growth (crystal imaging). The procedure: Next, the seed crystals are incubated in supersaturated calcium oxalate medium. This medium may have one or more of components for testing. Nucleation and changes in a crystal property (such as crystal growth) are detected by comparing signals obtained from a sample at different times and/or after changing the medium. For example, a signal for a sample can be taken at the beginning of incubation, and then optionally at one or more times during incubation, and then at the end of incubation. The number and time for obtaining signals from or screening a sample will depend on the particular experiment and will be readily apparent to the skilled artisan. These signals or screens of samples may be photographs of birefringent spots, the size of the spots (measured in pixels), calculations based on the pixels and their distribution in a birefringence- or plain light-based image, in-situ Raman spectroscopy to monitor growth or determine the composition of one or more crystals, signals for the concentration of component(s) in the medium, and the like.
FIG. 2 illustrates one such embodiment. Sodium oxalate and calcium chloride solutions are prepared during steps 200 and 205 respectively. Following mixing during step 210 to obtain supersaturated calcium oxalate medium, also described in FIG. 1, monitoring while incubating during step 215 detects the formation of seed crystals. Next, the medium is removed during step 220 followed by addition of fresh medium containing test components during step 225. The test component(s) are preferably added to the sodium oxalate solution used to make the medium. Alternatively, they could be added in the calcium chloride solution for making the medium, or in a separate solution, or as solids, or even mixed in, or any combination thereof.
Some processing of arrays is also seen in the method illustrated in FIG. 2. Further incubation of seed crystals during step 230 and imaging during step 235 provide data about the growth and/or nucleation of crystals. The high throughput method of FIG. 2 includes estimating a nucleation and/or growth rate from a number of birefringent spots. An increase in the nucleation rate, or observing little or no crystal growth, ascribable to a component may indicate a therapeutic use for treating diseases, conditions, or disorders associated with calculi or crystal deposition (e.g., nephrolithiasis) by reducing the average size of the crystals, stones or calculi to facilitate excretion. Alternatively, a significant decrease in the nucleation rate ascribable to a component may indicate a therapeutic use for treating diseases, conditions, or disorders associated with calculi or crystal deposition (e.g., nephrolithiasis) by decreasing the rate of stone or calculi formation.
The photograph of the illuminated crystals, e.g., obtained in step 235 of FIG. 2, may be further analyzed to estimate a number of pixels corresponding to a crystal spot.
Other properties of crystals may also be obtained from the pixel measurements in step 240 of FIG. 2. The photograph of the illuminated crystals also allows an estimate of a long and a short dimension among many possible measures. These reflect the habit of the crystal spot and may be used to predict crystals that are likely to be excreted more easily. For instance, small and even shaped crystals are more likely to be excreted than spiny crystal shapes, thus permitting high throughput screening for promising therapeutic candidates.
In FIG. 7, during step 700 one or more substances of interest are identified. […] The identified substances, added in solutions of calcium chloride or sodium oxalate, are subjected to screening via a high-throughput growth inhibitor screen during step 705. Accordingly, growth of crystals in supersaturated calcium oxalate medium is observed in the presence or absence of identified substances. Such growth may be of seed crystals or may include nucleation of crystals as well as growth.

Experiment [2] in a line: turbidity based assay of crystal nucleation and growth in supersaturated calcium oxalate solutions. Particulars: FIG. 10 and FIG. 11. The source says:
FIG. 10 illustrates the effect of citrate on growth and nucleation of crystals in supersaturated calcium oxalate solutions as measured by turbidity at 620 nm.
FIG. 11 is an example of turbidity based assay showing crystal nucleation and growth in supersaturated calcium oxalate solutions prepared in accordance with the method of FIG. 1.
The system also includes means for preparing metastable formulations such as supersaturated solutions. In a preferred design, supersaturated media for nucleating and growing crystals are prepared by mixing two stable components to give rise to a metastable supersaturated solution. […] This supersaturated mixture may be monitored after incubation for a predetermined duration during step 115. […]
Preferably, calcium oxalate crystals are also used to seed the supersaturated calcium oxalate solution in some samples to assess their growth or the lack thereof. Absorbance at about 620 nm provides a measure of turbidity and a decrease in turbidity indicates either aggregation or crystals/precipitate or reduction in the precipitation/crystal growth of calcium oxalate crystals. It should be noted that turbidity may be measured at other wavelengths as well including wavelengths corresponding to visible light and ultraviolet light. Preferably, but not as a requirement, turbidity is measured by evaluating light scattered at an angle to the incident light. […]

Where [3] appears, read: supersaturated calcium oxalate, amounts and concentrations in FIGS. 9A and 9B.

Counter-ions that a name gives are not always drawn. Like-named read-outs stand apart in the source and are kept apart here.

Take `O=C(O)C(O)c1ccc(Br)cc1` (stereo not shown) [4-bromomandelic acid]: in experiment [1] (setting [3]), the “crystal habit / form of material observed” value was “absence of plate like structures” and the “large (intermediate to large) crystals: number / size observed” value (shortened to “large … number / size observed”) is “larger sized crystals being formed”.
With `CCCCCCCCCCCCCCCCC(C(=O)O)C(O)(CC(=O)O)C(=O)O` (stereo not shown) [agaric acid], the “crystal habit / form of material observed” value in experiment [1] (setting [3]) is “formation of an emulsion/suspension”.
Turning to `NS(=O)(=O)c1cc(C(=O)O)c(NCc2ccco2)cc1Cl` [furosemide, reference compound], the “large … number / size observed” value in experiment [1] (setting [3]) is “many more large crystals”.
For the molecule `O=C(O)CNC(=O)c1ccccc1` [hippuric acid], the “overall effect on calcium oxalate crystals (number of crystals)” value in experiment [1] (setting [3]) is listed as “little effect”.
As for `COc1ccc2c(c1)c(CC(=O)O)c(C)n2C(=O)c1ccc(Cl)cc1` [indomethacin, reference compound], in experiment [1] (setting [3]), the “large … number / size observed” value is recorded as “reduction in the number of large crystals” and the “small crystals: number observed” value is on record as “little change in the number of small crystals”.
For `O=C([O-])[C@H](O)[C@@H](O)[C@H](O[C@@H]1O[C@H](CO)[C@H](O)[C@H](O)[C@H]1O)[C@H](O)CO.O=C([O-])[C@H](O)[C@@H](O)[C@H](O[C@@H]1O[C@H](CO)[C@H](O)[C@H](O)[C@H]1O)[C@H](O)CO.[Ca+2]` [lactobionic acid hemi calcium salt], in experiment [1] (setting [3]), the “large … number / size observed” value was “presence of very large crystals in some wells”.
With `O=C(O)[C@H](O)[C@@H](O)[C@H](O[C@@H]1O[C@H](CO)[C@H](O)[C@H](O)[C@H]1O)[C@H](O)CO` [lactobionic acid], the “overall effect on calcium oxalate crystals (number of crystals)” value in experiment [1] (setting [3]) was “many small and large crystals”.
The same measure, in the same setting: with `O=C(O)C(O)c1ccccc1` (stereo not shown) [mandelic acid] the entry was “little effect”.
Take `CN(C)c1ccc2nc3ccc(=[N+](C)C)cc-3sc2c1` [methylene blue, reference compound]: the “large … number / size observed” value in experiment [1] (setting [3]) is reported as “reduction in large crystals”.
Regarding `CCCN(CCC)S(=O)(=O)c1ccc(C(=O)O)cc1` [probenicid, reference compound], in experiment [1] (setting [3]), the “overall effect on calcium oxalate crystals (number of crystals)” value is given as “little effect” and the “small crystals: number observed” value is reported as “a few more small crystals”.
As to `O=C(O)CC(O)(CC(=O)O)C(=O)O` [sodium citrate], in experiment [2] (3 mM sodium citrate, turbidity at 620 nm), the “turbidity of supersaturated calcium oxalate compared to supersaturated calcium oxalate by itself” value is “dramatically reduces the turbidity”. The “formation of calcium oxalate crystals in a supersaturated calcium oxalate solution” value in experiment [2] is “effective, although limited, in reducing the formation of calcium oxalate crystals”.
For the molecule `CC(=O)OC[C@H]1O[C@@](COC(C)=O)(O[C@H]2O[C@H](COC(C)=O)[C@@H](OC(C)=O)[C@H](OC(C)=O)[C@H]2OC(C)=O)[C@@H](OC(C)=O)[C@@H]1OC(C)=O` [sucrose octaacetate], the “overall effect on calcium oxalate crystals (number of crystals)” value in experiment [1] (setting [3]) is listed as “increased number (countable) of crystals”.
In the case of `O=C(O)C1OC(C(=O)O)C(C(=O)O)C1C(=O)O` (stereo not shown) [tetrahydrofuran-2,3,4,5-tetracarboxylic acid], in experiment [1] (setting [3]), the “large … number / size observed” value was “reduced number of intermediate to large crystals” and the “small crystals: number observed” value is “increased number of small crystals”.
Consider atrolactic acid hemihydrate, for which, in experiment [1], the “large … number / size observed” value was “reduction in large crystals”.
